Assay [1] deals with T1, human CB2 (Homo sapiens, UniProt P34972, Q63R).
T1 construct: HA (N); 3TCS (N); expressed in transfected cells; host or cells: HEK-293S cells, transient transfection (PEI max)
Nature of the assay: Real-time BRET β-arrestin-2 plasma membrane translocation, HEK-293S cells transfected with human CB2. Type of assay: cell-based. The conditions noted are these: mean over 20 min stimulation. The protocol: HEK-293S cells (HEK-S; generously provided by Professor David Poyner, Aston Research Centre, RRID:CVCL_A784 [48]) were maintained in T75 flasks (Corning-Costar) with Dulbecco’s Modified Eagle’s Medium high glucose with phenol red, L-glutamine and sodium pyruvate (DMEM; Cytiva SH30243), and 8% foetal bovine serum (FBS; NZ-origin, Moregate Biotech) at 37 °C in a humidified atmosphere containing 5% CO2.
Poly-D-Lysine (PDL) (Sigma-Aldrich) at 0.05 mg/mL in PBS was incubated in wells of 96-well Solid White Flat Bottom Polystyrene TC-treated Microplate (Corning-Costar) at 37 °C for 1 h, then washed with PBS prior to seeding and transfection. Cells were seeded at 45,000 cells/well in DMEM supplemented with 12% FBS.
Plasmids encoding human CB2 (HA-3TCS-hCB2 63R pcDNA5/FRT; 28.5 ng per well) or no receptor (pcDNA5/FRT/CAT; 23.5 ng per well; Thermo Fisher Scientific, Waltham, MA, USA), and either His-CAMYEL (in pcDNA3L; 24 ng per well; ATCC MBA-277; previously described in [49]), or a mix of Rluc8-hβ-arrestin2-Sp1 (in pcDNA3; 0.5 ng per well; previously described in [19]) and Mem-linker-Citrine-SH3 (in pcDNA3; 20 ng per well; previously described in [19, 50]) were diluted in DMEM. Diluted DNA was then co-incubated with polyethyleneimine max (PEI max; Polysciences, Warrington, PA, USA) (Total DNA:PEI ratio of 1:7.5 or 1:6.7 for cAMP or β-arrestin-2 experiments, respectively) in DMEM for 1 h at room temperature (~19–21 °C). These transfection mixes were then added to plated cells, resulting in a final concentration of 8% FBS. Plates were incubated for ~48 h before assaying.
The protocol for measuring levels of cellular cAMP via real-time BRET biosensor (CAMYEL) is adapted from previous publications. In all cAMP experiments, forskolin (Tocris Bioscience, Bristol, UK) was used to stimulate the activation of adenylyl cyclase to raise intracellular cAMP levels. Vehicle (DMSO) was maintained at an equivalent concentration across all conditions. Assays were carried out in technical duplicate. Then, ~48 h post-transfection, plating media was aspirated, and wells were washed with H+B, consisting of HBSS (Life Technologies) and 1 mg/mL BSA (ICPbio). H+B was then added to the wells to initiate a 30 min serum starve at 37 °C. Post-serum starve, coelenterazine h (final concentration 5 μM, NanoLight Technologies, Norman, OK, USA, #301) was added to the wells, and a 5 min pre-reading was conducted using the LUMIstar® Omega luminometer (Rluc and YFP emissions detected at 460 nm and 535 nm, respectively; BMG Labtech, Ortenberg, Germany). Next, forskolin (final concentration 5 μM) was added to all wells (except vehicle-only wells which received DMSO), and plate reading resumed for 5 min. Lastly, CB2 compounds of interest with forskolin, vehicle with forskolin, or vehicle without forskolin, were added to their respective wells, and a final 20 min read was conducted. All compounds and reagents were diluted in H+B prior to addition to the plate. For β-arrestin-2 recruitment assays, an equivalent procedure was followed except no forskolin was included in the assay stimulations.
BRET ratios were calculated by dividing YFP emissions by Rluc emissions, then for the cAMP assay, normalised to the mean of baseline ratio reads (where only coelenterazine h was present) to eliminate any variability present prior to drug addiction. An increase in BRET ratio indicated a decrease in cAMP levels or increase in β-arrestin-2 recruitment. Lowess smoothing (GraphPad Prism) was applied to individual technical replicates within an assay. Concentration response curves for the mean of technical replicates (CRC; “log(agonist) vs. response (three parameters)” nonlinear regression curve model, Hill slope constrained to 1) were drawn for the mean ratios over 20 min stimulation or individual time-points.
Background: In BRET a luciferase serves as donor, and the signal depends on an acceptor being close.

In assay [2] the target is T2, human CB1 (Homo sapiens, UniProt P21554).
T2 construct: pplss (N); 3HA (N); expressed in transfected cells
Nature of the assay: Competition radioligand binding assay ([3H]-CP55,940), hCB1 membranes. The conditions noted are these: 0.75 nM [3H]-CP55,940; estimates, incomplete displacement at maximum concentration; read-out: CB1 pKi (±SEM) (converted). The protocol:
Preparation of hCB1- and hCB2-membranes from a HEK pplss-3HA-hCB1 cell line and HEK Flp-in HA-3TCS-hCB2 63R cell line, respectively, followed the protocol described previously. […] The concentration of DMSO was kept equivalent across all test conditions. All dilutions were dispensed into a 96-well, polypropylene V-bottom plate (Gene Era Biotech, Hangzhou, China). […] All conditions were carried out in technical duplicate. The plate was then sealed, tap-mixed, then incubated at 30 °C for 1 h. A total of 50 µL of 0.1% PEI (Sigma-Aldrich, St. Louis, MI, USA) in MQ water was added to each well of a 96-well GF/C harvest plate (Perkin Elmer) 1 h prior to the harvest. When the incubation finished, vacuum (~5 mmHg) was applied to the harvest plate and wells were washed (50 mM HEPES pH 7.4, 500 mM NaCl, 1 mg/mL BSA, MQ water, ice cold). Subsequently, the contents of the V-bottom plate were transferred to corresponding wells in the harvest plate, wash buffer was used to wash the remaining contents of the V-bottom wells before transferring this to the harvest plate, then the harvest plate was washed an additional three times. The plate was dried for ~24 h at 24 °C. To prepare for reading, the bottom of the plate was sealed, each well received 50 µL of Irgasafe Plus scintillation fluid (Perkin Elmer), followed by sealing the top of the plate. Plates were read in a Wallac MicroBeta® TriLux Liquid Scintillation Counter (Perkin Elmer) with a read time of 2 min/well.
GraphPad Prism (v8.0.2; GraphPad Software, San Diego, CA, USA) was used to fit nonlinear regression curves (One site—Fit Ki) to the corrected counts per minutes (CCPM) of each displacer to determine their pKi (negative log Ki). […] Mean and SEM of pKi values were calculated from independent experiments. […] CB2 selectivity was calculated as […].

T1 sequence (P34972 whole entry Q63R): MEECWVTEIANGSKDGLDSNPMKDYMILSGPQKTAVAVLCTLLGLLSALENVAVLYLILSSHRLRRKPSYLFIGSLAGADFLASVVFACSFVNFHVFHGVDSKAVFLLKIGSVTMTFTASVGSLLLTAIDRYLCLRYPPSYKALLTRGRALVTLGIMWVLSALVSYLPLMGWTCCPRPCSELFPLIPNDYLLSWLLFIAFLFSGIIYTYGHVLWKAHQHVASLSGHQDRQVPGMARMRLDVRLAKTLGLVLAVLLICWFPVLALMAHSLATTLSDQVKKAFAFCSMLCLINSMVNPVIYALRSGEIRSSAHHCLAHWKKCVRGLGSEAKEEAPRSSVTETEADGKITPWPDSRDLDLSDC
T2 sequence (P21554 whole entry): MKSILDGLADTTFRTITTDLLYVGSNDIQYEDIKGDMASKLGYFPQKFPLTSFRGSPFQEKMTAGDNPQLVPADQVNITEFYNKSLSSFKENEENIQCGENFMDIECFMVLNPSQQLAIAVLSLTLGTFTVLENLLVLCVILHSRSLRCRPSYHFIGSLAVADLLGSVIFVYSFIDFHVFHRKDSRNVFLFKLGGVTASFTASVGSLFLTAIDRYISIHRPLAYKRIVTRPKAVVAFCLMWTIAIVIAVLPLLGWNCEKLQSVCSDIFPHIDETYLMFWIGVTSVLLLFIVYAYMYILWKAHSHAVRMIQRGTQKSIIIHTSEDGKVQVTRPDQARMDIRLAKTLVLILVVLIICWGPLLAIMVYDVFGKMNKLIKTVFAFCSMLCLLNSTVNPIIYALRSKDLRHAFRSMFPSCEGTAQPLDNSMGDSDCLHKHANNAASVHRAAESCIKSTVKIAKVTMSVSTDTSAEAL

Turning to `CCc1c(C)cc(C(=O)NC2(C(=O)O)CCCCC2)c(=O)n1Cc1ccc(F)cc1` [UOSS77, reference compound], the EC50 in assay [1] (mean ± SEM, read-out: β-arrestin-2 translocation pEC50 (converted)) is 126 nM. The “β-arrestin-2 translocation ΔEmax (% increase above V)” value in assay [1] (normalised to vehicle 100%) is recorded as 11.1 ± 0.7%. Further, the Ki in assay [2] was approximately 15.8 µM.
